Assay results reported in article PMC9851200, “Multiparameter phenotypic screening for endogenous TFEB and TFE3 translocation identifies novel chemical series modulating lysosome function” (Autophagy, 2022).

Key:
Format in all cases: binding
[1] = target: kinases (KINOMEscan panel) (Homo sapiens, UniProt Q05655); details: kinase PRKCD; NEW KINOMEscan
[2] = target: T1, kinases (KINOMEscan panel) (Homo sapiens, UniProt Q8IYT8); details: NEW KINOMEscan
T1 sequence (Q8IYT8 1-1036): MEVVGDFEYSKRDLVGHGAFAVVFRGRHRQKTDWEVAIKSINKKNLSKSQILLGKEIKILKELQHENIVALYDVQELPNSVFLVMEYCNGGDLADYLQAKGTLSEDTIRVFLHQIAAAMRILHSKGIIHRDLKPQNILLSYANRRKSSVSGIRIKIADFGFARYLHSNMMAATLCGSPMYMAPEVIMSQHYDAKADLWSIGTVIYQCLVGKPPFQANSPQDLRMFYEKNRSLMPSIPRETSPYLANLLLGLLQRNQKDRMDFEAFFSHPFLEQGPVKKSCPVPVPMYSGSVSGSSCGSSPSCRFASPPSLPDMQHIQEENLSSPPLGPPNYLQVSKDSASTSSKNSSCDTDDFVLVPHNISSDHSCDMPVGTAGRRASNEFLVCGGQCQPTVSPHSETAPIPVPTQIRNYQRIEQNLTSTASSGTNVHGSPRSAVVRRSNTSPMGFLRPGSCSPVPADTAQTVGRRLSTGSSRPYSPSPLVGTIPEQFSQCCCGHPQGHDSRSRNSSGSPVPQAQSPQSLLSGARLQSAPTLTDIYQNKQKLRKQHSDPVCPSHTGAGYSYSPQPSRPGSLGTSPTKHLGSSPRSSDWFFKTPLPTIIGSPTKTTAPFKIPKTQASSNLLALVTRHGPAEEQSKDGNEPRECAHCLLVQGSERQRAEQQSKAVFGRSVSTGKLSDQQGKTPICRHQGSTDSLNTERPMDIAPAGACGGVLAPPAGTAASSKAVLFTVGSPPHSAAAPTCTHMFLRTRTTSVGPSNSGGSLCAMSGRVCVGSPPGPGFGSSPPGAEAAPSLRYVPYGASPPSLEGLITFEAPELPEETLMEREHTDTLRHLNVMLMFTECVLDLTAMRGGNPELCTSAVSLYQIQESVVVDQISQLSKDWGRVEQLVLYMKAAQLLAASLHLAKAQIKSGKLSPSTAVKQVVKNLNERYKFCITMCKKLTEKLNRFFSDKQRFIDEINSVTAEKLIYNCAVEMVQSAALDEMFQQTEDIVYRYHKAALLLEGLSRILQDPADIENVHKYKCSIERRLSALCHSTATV

[3] = target: T2, kinases (KINOMEscan panel) (Homo sapiens, UniProt Q7L7X3); details: kinase TAOK1; NEW KINOMEscan
T2 sequence (Q7L7X3 1-1001): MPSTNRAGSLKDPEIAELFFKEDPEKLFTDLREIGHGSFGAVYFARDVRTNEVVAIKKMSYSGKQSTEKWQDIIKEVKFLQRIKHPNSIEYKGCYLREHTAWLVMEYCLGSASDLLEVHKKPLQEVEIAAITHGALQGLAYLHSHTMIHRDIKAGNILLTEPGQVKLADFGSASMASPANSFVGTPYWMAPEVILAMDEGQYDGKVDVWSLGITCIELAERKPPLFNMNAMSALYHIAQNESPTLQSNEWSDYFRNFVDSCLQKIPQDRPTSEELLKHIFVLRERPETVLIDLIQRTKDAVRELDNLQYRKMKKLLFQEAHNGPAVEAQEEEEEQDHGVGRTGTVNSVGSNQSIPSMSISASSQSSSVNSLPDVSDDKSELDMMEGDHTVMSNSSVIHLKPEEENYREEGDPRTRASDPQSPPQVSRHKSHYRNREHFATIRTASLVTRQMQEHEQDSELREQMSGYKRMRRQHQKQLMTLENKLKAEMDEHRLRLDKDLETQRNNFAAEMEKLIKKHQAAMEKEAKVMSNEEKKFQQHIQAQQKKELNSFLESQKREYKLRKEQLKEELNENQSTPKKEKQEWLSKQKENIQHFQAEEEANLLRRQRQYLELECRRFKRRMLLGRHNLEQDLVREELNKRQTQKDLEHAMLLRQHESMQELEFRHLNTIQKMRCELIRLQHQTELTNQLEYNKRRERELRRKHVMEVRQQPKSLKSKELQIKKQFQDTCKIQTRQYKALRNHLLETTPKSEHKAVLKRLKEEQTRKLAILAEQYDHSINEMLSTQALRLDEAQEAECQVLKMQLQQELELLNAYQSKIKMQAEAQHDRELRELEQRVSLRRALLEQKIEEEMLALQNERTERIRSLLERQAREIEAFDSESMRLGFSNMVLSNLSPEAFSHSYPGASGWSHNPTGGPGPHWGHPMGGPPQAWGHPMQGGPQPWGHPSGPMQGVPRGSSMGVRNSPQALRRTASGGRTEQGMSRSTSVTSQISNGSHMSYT

[4] = target: kinases (KINOMEscan panel) (Homo sapiens, UniProt Q52WX2); details: SBK1; NEW KINOMEscan
Chain of kinases (KINOMEscan panel) (Homo sapiens, UniProt Q52WX2) (Q52WX2 whole entry): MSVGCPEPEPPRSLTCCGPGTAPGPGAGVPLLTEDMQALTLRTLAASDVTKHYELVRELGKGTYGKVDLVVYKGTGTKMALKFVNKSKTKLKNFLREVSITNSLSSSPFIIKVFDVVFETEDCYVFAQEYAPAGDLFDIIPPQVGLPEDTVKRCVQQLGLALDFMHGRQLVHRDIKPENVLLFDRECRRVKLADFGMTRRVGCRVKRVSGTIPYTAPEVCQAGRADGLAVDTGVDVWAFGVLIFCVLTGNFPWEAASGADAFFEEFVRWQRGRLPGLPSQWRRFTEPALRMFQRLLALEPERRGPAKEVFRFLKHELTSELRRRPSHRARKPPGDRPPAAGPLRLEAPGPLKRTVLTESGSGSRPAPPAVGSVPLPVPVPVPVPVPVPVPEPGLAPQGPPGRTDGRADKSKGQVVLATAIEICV

[5] = target: kinases (KINOMEscan panel) (Homo sapiens, UniProt P07949, V804M); details: kinase RET(V804M); NEW KINOMEscan
Chain of kinases (KINOMEscan panel) (Homo sapiens, UniProt P07949, V804M) (P07949 29-1114 V804M): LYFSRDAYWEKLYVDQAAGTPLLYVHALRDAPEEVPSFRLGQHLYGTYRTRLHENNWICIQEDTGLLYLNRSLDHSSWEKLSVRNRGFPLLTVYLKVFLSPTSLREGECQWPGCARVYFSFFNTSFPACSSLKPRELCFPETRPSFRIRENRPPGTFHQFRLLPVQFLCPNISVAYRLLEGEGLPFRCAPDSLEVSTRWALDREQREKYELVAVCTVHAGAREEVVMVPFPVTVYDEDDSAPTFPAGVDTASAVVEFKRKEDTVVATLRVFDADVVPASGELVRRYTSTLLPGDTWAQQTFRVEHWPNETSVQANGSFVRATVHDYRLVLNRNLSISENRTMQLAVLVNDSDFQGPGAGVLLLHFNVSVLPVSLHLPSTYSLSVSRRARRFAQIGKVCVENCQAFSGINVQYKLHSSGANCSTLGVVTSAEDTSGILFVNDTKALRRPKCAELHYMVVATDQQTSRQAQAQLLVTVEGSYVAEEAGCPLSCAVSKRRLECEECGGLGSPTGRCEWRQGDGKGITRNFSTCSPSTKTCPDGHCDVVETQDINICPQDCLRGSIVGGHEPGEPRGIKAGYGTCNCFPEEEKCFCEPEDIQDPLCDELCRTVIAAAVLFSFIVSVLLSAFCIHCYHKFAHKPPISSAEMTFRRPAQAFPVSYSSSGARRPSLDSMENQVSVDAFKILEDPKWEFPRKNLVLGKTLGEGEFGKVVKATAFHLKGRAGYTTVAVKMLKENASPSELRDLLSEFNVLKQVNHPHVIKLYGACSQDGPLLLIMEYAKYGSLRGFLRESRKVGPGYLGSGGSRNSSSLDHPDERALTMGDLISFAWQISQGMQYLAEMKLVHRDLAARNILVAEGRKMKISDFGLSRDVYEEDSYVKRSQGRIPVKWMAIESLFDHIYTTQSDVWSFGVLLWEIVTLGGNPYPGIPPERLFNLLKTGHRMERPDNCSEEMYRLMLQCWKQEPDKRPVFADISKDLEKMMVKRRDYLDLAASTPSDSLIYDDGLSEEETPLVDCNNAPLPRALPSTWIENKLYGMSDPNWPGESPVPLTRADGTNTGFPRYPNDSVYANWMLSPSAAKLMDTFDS

[6] = target: T3, kinases (KINOMEscan panel) (Homo sapiens, UniProt P15735); details: kinase PHKG2; NEW KINOMEscan
T3 sequence (P15735 1-406): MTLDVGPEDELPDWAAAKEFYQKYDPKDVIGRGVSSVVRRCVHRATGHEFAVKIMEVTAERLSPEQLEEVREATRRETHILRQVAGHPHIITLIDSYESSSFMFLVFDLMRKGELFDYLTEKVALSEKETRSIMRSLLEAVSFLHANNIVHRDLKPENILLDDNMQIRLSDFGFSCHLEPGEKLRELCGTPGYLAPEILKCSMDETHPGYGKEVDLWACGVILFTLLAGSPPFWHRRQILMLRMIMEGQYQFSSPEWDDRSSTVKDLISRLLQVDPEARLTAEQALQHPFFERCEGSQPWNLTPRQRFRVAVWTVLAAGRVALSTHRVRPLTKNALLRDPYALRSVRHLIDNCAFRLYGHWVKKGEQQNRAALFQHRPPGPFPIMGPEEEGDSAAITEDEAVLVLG

[7] = target: kinases (KINOMEscan panel) (Homo sapiens, UniProt P07332); details: kinase FES; NEW KINOMEscan
Chain of kinases (KINOMEscan panel) (Homo sapiens, UniProt P07332) (P07332 whole entry): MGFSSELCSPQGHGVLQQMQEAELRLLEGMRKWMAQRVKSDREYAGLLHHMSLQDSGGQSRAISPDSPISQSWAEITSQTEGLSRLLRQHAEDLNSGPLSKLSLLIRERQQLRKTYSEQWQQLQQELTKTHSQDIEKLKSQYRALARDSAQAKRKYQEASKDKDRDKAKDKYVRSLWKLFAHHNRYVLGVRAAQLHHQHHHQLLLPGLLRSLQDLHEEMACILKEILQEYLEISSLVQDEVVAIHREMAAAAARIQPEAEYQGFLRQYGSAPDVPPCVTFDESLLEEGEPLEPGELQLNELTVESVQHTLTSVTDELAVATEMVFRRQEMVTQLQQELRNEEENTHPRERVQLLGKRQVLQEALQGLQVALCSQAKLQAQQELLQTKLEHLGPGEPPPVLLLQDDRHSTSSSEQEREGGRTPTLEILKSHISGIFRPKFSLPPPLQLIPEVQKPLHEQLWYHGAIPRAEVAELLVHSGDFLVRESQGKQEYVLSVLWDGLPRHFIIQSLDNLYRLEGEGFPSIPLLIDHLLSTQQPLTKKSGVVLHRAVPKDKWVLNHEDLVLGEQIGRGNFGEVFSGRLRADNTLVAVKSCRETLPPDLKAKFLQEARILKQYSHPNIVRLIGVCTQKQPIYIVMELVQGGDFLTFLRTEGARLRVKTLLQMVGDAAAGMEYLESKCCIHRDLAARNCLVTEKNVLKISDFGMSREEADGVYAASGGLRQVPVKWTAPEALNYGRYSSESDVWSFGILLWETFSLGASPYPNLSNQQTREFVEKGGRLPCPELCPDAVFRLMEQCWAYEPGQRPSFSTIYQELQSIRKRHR

[8] = target: kinases (KINOMEscan panel) (Homo sapiens, UniProt Q5VT25)
Chain of kinases (KINOMEscan panel) (Homo sapiens, UniProt Q5VT25) (Q5VT25 whole entry): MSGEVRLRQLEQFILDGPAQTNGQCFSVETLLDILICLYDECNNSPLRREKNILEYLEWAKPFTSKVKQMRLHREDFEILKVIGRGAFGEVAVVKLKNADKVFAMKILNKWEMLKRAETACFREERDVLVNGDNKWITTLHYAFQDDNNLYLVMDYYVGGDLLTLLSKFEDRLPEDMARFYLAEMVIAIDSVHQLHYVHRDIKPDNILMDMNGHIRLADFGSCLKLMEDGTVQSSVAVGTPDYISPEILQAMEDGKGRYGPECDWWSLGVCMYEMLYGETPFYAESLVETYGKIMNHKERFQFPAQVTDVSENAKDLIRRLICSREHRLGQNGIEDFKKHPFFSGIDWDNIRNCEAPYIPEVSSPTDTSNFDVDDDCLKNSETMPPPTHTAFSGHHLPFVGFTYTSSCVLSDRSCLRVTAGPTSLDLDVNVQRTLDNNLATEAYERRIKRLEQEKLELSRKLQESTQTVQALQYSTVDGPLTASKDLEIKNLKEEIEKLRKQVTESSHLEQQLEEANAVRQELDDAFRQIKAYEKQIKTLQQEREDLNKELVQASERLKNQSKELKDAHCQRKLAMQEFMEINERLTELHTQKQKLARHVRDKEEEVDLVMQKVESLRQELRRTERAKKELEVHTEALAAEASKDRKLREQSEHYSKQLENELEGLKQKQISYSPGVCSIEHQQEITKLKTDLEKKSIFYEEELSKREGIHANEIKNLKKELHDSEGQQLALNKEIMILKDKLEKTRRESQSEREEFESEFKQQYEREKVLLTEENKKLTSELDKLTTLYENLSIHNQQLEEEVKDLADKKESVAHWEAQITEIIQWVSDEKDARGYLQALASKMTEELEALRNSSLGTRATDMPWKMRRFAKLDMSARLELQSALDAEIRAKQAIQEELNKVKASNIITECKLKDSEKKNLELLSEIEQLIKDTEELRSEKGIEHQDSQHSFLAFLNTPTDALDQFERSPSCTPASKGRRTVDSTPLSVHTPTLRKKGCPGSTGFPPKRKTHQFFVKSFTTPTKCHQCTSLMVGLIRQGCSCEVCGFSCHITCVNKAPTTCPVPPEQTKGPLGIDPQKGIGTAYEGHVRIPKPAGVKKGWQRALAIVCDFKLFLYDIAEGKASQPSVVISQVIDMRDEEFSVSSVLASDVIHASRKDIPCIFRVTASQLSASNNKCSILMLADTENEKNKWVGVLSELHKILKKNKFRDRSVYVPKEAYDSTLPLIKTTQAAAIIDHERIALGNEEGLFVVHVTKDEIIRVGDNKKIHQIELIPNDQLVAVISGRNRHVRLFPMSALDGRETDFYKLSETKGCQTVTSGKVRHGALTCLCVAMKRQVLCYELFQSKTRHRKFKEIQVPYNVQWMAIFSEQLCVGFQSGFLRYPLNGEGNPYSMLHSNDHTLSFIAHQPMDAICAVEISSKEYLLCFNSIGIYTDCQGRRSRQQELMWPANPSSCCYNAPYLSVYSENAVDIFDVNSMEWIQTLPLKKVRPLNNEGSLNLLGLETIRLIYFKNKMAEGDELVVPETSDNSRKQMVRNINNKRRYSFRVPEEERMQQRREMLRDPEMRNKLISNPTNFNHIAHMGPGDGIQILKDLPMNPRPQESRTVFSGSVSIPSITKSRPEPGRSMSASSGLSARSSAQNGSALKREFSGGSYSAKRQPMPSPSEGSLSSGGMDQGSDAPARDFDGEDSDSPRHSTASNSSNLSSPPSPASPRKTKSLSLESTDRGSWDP

Chain of kinases (KINOMEscan panel) (Homo sapiens, UniProt Q05655) (Q05655 whole entry): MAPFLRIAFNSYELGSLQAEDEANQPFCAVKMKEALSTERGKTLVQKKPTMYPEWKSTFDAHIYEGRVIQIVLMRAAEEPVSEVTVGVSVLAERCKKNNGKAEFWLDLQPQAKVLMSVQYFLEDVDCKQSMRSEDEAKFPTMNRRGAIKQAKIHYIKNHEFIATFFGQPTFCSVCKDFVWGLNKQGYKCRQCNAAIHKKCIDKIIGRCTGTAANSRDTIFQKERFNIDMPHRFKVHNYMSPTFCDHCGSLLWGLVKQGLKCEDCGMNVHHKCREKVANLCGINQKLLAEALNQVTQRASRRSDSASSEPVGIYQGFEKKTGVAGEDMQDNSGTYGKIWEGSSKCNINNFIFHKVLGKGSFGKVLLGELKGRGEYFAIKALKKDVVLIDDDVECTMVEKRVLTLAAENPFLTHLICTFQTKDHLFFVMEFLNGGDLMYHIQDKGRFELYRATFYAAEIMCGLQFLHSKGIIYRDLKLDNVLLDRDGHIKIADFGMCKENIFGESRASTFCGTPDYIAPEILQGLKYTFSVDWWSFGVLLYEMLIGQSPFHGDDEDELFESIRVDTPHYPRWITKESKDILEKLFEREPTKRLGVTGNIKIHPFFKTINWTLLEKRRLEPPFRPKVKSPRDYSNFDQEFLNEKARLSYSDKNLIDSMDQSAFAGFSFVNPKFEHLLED

## Cc1cccc(-c2nc(Nc3ccc4nn(C)cc4c3)c3ccccc3n2)n1 [NK167]
[1]
  KINOMEscan PRKCD: 21
[2]
  KINOMEscan ULK2: 17
[3]
  KINOMEscan TAOK1: 0
[4]
  KINOMEscan SBK1: 0
[5]
  KINOMEscan RET(V804M): 0
[6]
  KINOMEscan PHKG2: 0
[7]
  KINOMEscan FES: 0
[8]
  KINOMEscan CDC42BPA/MRCKA: 0

## Cc1cccc(-c2nc(N(C)c3ccc4ncsc4c3)c3ccccc3n2)n1 [NK-161]
[1]
  KINOMEscan PRKCD: 16
[2]
  KINOMEscan ULK2: 23
[3]
  KINOMEscan TAOK1: 1
[4]
  KINOMEscan SBK1: 0
[5]
  KINOMEscan RET(V804M): 0
[6]
  KINOMEscan PHKG2: 0
[7]
  KINOMEscan FES: 4
[8]
  KINOMEscan CDC42BPA/MRCKA: 5
